Data taken from patent US11046945B2, “Labeled glutaminase proteins, isolated glutaminase protein mutants, methods of use, and kit” (CORNELL UNIVERSITY, priority 2013, dated 2021).

Biological target: T1, GAC (Mus musculus, UniProt D3Z7P3)
T1 construct: plasmid (residues 72-603 for GAC, 72-674 for KGA); His-tag with thrombin cleavage site (N, cleaved yes); made in house; host or cells: pET23a vector
T1 sequence (D3Z7P3 72-603 isoform D3Z7P3-2): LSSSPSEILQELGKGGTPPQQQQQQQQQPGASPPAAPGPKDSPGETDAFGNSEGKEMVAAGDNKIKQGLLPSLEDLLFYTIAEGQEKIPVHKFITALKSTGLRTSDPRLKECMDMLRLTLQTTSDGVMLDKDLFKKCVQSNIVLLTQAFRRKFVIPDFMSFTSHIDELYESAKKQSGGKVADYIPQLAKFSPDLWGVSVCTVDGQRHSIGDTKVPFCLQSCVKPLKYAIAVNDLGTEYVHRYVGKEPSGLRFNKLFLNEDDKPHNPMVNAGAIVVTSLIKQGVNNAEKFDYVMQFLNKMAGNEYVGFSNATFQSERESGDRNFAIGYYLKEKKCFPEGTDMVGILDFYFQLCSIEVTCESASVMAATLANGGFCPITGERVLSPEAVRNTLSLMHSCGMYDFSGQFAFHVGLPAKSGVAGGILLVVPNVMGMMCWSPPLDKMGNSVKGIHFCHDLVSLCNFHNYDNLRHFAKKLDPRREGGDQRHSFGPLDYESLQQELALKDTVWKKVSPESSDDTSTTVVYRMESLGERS
Test: FRET assay of GAC tetramer formation (488-GAC donor, QSY 9-GAC acceptor)
Assay type: binding
Conditions: for effect on 488-GAC fluorescence emission in equilibrated 488-GAC/QSY 9-GAC mixture: 20 nM 488-GAC and 200 nM QSY 9-GAC
Excerpt: A mouse kidney type glutaminase isoform 1 (KGA, NP_001074550.1, which is hereby incorporated by reference in its entirety (SEQ ID NO:7)) and isoform 2 (GAC, NP_001106854.1, which is hereby incorporated by reference in its entirety (SEQ ID NO:3)) plasmid (residues 72-603 for GAC, 72-674 for KGA) was cloned into a pET23a vector containing an N-terminal histidine (His)-tag and thrombin cleavage site. The expressed protein was initially purified using Co^2+ affinity beads (Clontech), after which the His-tag was cleaved with human thrombin (Haemetologic Technologies) overnight at 4° C. and subsequently purified by anion exchange (GE healthcare) and gel filtration chromatography. Purified GAC or KGA was stored in a high salt containing buffer (20 mM Tris-HCl pH 8.5, 500 mM NaCl, 1 mM NaN3) and stored at −80° C. following snap freezing in liquid N2 for long term use. For labeling recombinant GAC or KGA with small molecule probes, 1.5 mg of enzyme was exchanged to 50 mM HEPES pH 7.2, 100 mM NaCl using a PD10 desalting column (GE healthcare) and incubated with 50 μM (5-fold excess of enzyme) of either ALEXA FLUOR® 488 succinimidyl ester or QSY® 9 succinimidyl ester (Molecular Probes) for 1 hr at 4° C. After 1 hr, the labeling reaction was quenched with 150 mM Tris-HCl pH 8.5 and unreacted probe was separated from labeled-enzyme using a PD10 desalting column eluting labeled-GAC back into the high salt containing buffer.
Fluorescence experiments were performed using a Varian Carry Eclipse Fluorometer in the counting mode. Excitation and emission wavelengths were 490 and 520 nm, respectively. Experiments were all prepared as one-mL samples and stirred continuously at 20° C. in 50 mM Tris-Acetate pH 8.5, 0.1 mM ethylenediaminetetraacetic acid (EDTA). For WT GAC titrations in the absence of inorganic phosphate, 10 nM 488-GAC was equilibrated followed by injection of 25 μL of the appropriate concentration of QSY® 9-GAC and was allowed to equilibrate for 10 minutes at which point 75 μL of the appropriate concentration of unlabeled WT GAC was added to give a concentration that was ten-times that of labeled-GAC (i.e., 10-fold excess). For FRET experiments prepared for inorganic phosphate titrations, a similar protocol was followed whereby 10 nM of 488-GAC was equilibrated with 400 nM QSY® 9-GAC followed by injection of 100 μL of the appropriate concentration of K2HPO4 prepared in 50 mM Tris-Acetate (pH=8.5) 0.1 mM EDTA buffer. To test whether purified mutants can form oligomers with WT GAC, 200 nM QSY® 9-D391K-GAC or 200 nM QSY® 9-K316E-D391K-R459E was added to an equilibrated sample of 20 nM 488-WT GAC. Likewise, when assaying the effects of BPTES and 968 on oligomer formation, BPTES or 968 (10 μM or 25 μM, respectively) was added following equilibration of a sample of 200 nM of QSY® 9-WT GAC and 20 nM 488-WT GAC. Both BPTES and 968 were prepared in DMSO, and appropriate dilutions were made so that less than 2% (v/v) DMSO was added to an experimental sample.

effect on 488-GAC fluorescence emission in equilibrated 488-GAC/QSY 9-GAC mixture (10 μM BPTES)	reversal of induced tetramers/quenching by excess unlabeled GAC (10 μM BPTES, 10-fold excess unlabeled GAC)	SMILES	effect on 488-GAC fluorescence emission in equilibrated 488-GAC/QSY 9-GAC mixture (25 μM 968)
immediate quenching	stable and not disrupted	O=C(Cc1ccccc1)Nc1nnc(CCSCCc2nnc(NC(=O)Cc3ccccc3)s2)s1 [BPTES]	
		CN(C)c1ccc(C2Nc3ccc4ccccc4c3C3=C2C(=O)CC(C)(C)C3)cc1Br (stereo not drawn) [compound 968]	significant change in the fluorescence emission
